Measured values taken from patent US20180235912A1, “PHARMACEUTICAL COMPOSITION FOR PREVENTING OR TREATING AUTOIMMUNE DISEASES COMPRISING THIOUREA DERIVATIVE” (SEOUL NATIONAL UNIVERSITY R & DB FOUNDATION, priority 2015, published 2018).

Key:
peritoneal macrophages [1] = test: Transcription of inflammatory genes in primarily cultured intraperitoneal macrophages, real-time PCR; format: cell-based; conditions: mouse intraperitoneal macrophages, 10 ng/mL LPS, 20 μM, 24 hours
Procedure: (§1) Peritoneal macrophages of 7 to 8-week-old C57BL/6 male mice were isolated, seeded in a 24-well dish at a density of 1×10^6 cells/well, and then cultured for 4 hours in an RPMI1640 medium supplemented with 10% fetal bovine serum (FBS). A peritoneal macrophage culture broth was treated with each of 10 ng/mL of LPS and 20 μM JC1-40 or JC1-42, as indicated herein, for 24 hours. In this case, the peritoneal macrophages were kept at 37° C. in a thermo-hygrostat chamber in which 5% CO2 and 95% air were maintained.
First, mRNA expression levels of the inflammatory markers, such as TNF-α, NOS2, IL-1β, and IL-6, which induce rheumatoid arthritis, were measured using a real-time PCR (i.e., real-time reverse transcriptase-polymerase chain reaction; quantitative polymerase chain reaction) assay. As a result, it can be seen that the mRNA levels of TNF-α, NOS2, IL-1β and IL-6, which are involved in the induction of inflammation, in the intraperitoneal macrophages were reduced when the cells were treated with JC1-40 or JC1-42, as shown in FIG. 2.

peritoneal macrophages [2] = test: Transcription of M2 anti-inflammatory genes in primarily cultured intraperitoneal macrophages, real-time PCR; format: cell-based; conditions: mouse intraperitoneal macrophages, 20 ng/mL IL-4, 20 μM, 24 hours
Procedure: as §1, with “of 20” for “of 10”, “of IL-4” for “of LPS”, “hours. Thereafter, mRNA expression levels of the M2 anti-inflammatory markers, such as IL-10, Arg1, Retnla, and CD206, […], were measured using a real-time PCR (i.e., real-time reverse transcriptase-polymerase chain reaction; quantitative polymerase chain reaction) assay.” for “hours.”

[3] = system: Raw 264.7 macrophage cell line; test: Transcription of inflammatory genes in LPS-treated macrophage cell line, real-time PCR; format: cell-based, mouse; conditions: Raw 264.7, 50 ng/mL LPS, 20 μM, 24 hours
Procedure: A mouse macrophage cell line Raw 264.7 (ATCC TIB-71) was purchased from the American Type Culture Collection (ATCC). Raw 264.7 cells (2×10^5 cells/well) were seeded in a 6-well culture dish, and cultured for a day in a Dulbecco's modified Eagle's medium (DMEM) supplemented with 10% fetal bovine serum (FBS). The Raw 264.7 cells were kept at 37° C. in a thermo-hygrostat chamber in which 5% CO2 and 95% air were maintained. After the culturing, the cells were treated with 50 ng/mL of lipopolysaccharides (LPS) and 20 μM JC1-40 for 24 hours. Then, mRNA expression levels of the inflammatory markers, such as TNF-α, NOS2, IL-1β, and IL-6, which induce rheumatoid arthritis, were measured using a real-time PCR (i.e., real-time reverse transcriptase-polymerase chain reaction; quantitative polymerase chain reaction) assay.

peritoneal macrophages [4] = test: M1 differentiation of intraperitoneal macrophages, PE-CD80 flow cytometry; format: cell-based; conditions: mouse intraperitoneal macrophages, 10 ng/mL LPS, 20 μM, 24 hours
Procedure: as §1
Further, a PE-CD80 antibody (eBioscience), which is a M1 marker for recognizing a change of M1 cells, was incubated in these cells for 30 minutes, and then subjected to flow cytometry. As a result, it was confirmed that the M1 differentiation was suppressed when the macrophages were treated with JC1-40, as shown in FIG. 3.

EL4 cell line [5] = test: RORα and IL-17 transcription in T cell line under Th17 differentiation conditions, real-time PCR; format: cell-based, mouse; conditions: EL4, 20 μM pre-treatment 24 hours, Th17 differentiation conditions 48 hours
Procedure: A mouse T cell EL4 cell line (5×10^5 cells/well) was seeded in a 24-well culture dish, pre-treated with 20 μM JC1-40 for 24 hours, and cultured for a day in a RPMI 1640 medium supplemented with 10% FBS. The EL4 cell line was kept at 37° C. in a thermo-hygrostat chamber in which 5% CO2 and 95% air were maintained. After the culturing, the cells were cultured for 48 hours under Th17 differentiation conditions (including 0.5 μg/mL of an anti-CD3 antibody, 1 μg/mL of an anti-CD28 antibody, 2 ng/mL of TGF-β, 20 ng/mL of IL-6, 10 μg/mL of anti-IL-4, and 10 μg/mL of anti-IFN-γ). Expression levels of RORα, which is a JC1-40-activated nuclear receptor, and IL-17, which is an inflammatory marker inducing rheumatoid arthritis, were measured using a real-time PCR (i.e., real-time reverse transcriptase-polymerase chain reaction; quantitative polymerase chain reaction) assay.

EL4 cell line [6] = test: Foxp3 expression in T cell line, immunostaining and confocal microscopy; format: cell-based, mouse; conditions: EL4, 20 μM, Th17 differentiation conditions, confocal microscopy
[7] = system: CD4+ T cells from spleens; test: Th17 differentiation of primarily cultured spleen T cells, flow cytometry; format: cell-based; conditions: mouse spleen CD4+ T cells, 0.1, 0.5, 10 and 50 μM, Th17 conditions 3 days
Procedure: (§2) CD4+ T cells were isolated from the spleens of 7 to 8-week-old C57BL/6 male mice, seeded in a 48-well dish at a density of 5×10^5 cells/well, pre-treated with a varying concentration of JC1-40 (0.1, 0.5, 10, and 50 μM) for 24 hours, and then cultured for a day in an RPMI1640 medium supplemented with 10% fetal bovine serum (FBS). After the culturing, the cells were cultured for 3 days under Th17 differentiation conditions (including 0.5 μg/mL of an anti-CD3 antibody, 1 μg/mL of an anti-CD28 antibody, 2 ng/mL of TGF-β, 20 ng/mL of IL-6, 10 μg/mL of anti-IL-4, and 10 μg/mL of anti-IFN-γ). Thereafter, the cells were collected, washed with a FACS buffer for flow cytometry, and then blocked at 4° C. for 15 minutes to inhibit non-specific binding. As a cell surface marker, an antibody against CD4 (anti-CD4-PerCP) was added thereto, and reacted at 4° C. for 30 minutes, and the resulting reaction mixture was washed with a perm wash buffer. After a Cytofix/Cytoperm process was performed at 4° C. for 20 minutes, the mixture was washed with a perm wash buffer. Anti-IL-17 PE was added thereto, and reacted at 4° C. for 30 minutes, and the resulting reaction mixture was washed with a perm wash buffer. A change of the stained cells was analyzed using flow cytometry.

[8] = system: CD4+ T cells from spleens; test: IL-17 secretion of spleen T cells, sandwich ELISA of culture supernatant; format: cell-based; conditions: mouse spleen CD4+ T cells, Th17 conditions
Procedure: as §2, with “After a Cytofix/Cytoperm process was performed at 4° C. for 20 minutes, the mixture was washed with a perm wash buffer. Anti-IL-17 PE was added thereto, and reacted at 4° C. for 30 minutes, and the resulting reaction mixture was washed with a perm wash buffer.” left out
In addition, a culture supernatant of the JC1-40-treated Th17 cells was collected to determine an amount of IL-17 using a sandwich ELISA method. […] Then, a PNPP/DEA solution was added thereto, and developed color, and the optical density was then measured at a wavelength of 405 nm.

[9] = system: human peripheral blood mononuclear cells (PBMCs); test: Th17 and Treg differentiation of CD4+ cells from PBMCs, flow cytometry; format: cell-based; conditions: human CD4+ cells from PBMCs, 10, 20 and 40 μM, Th17 conditions 3 days
Procedure: CD4+ cells were isolated from peripheral blood mononuclear cells (PBMCs) of a healthy human, pre-treated with a varying concentration (10, 20, and 40 μM) of JC1-40, and then cultured for 3 days under Th17 differentiation conditions (including 0.5 μg/mL of anti-CD3, 0.5 μg/mL of anti-CD28, 10 μg/mL of anti-IFN-γ, 10 μg/mL of anti-IL-4, 20 ng/mL of IL-6, and 20 ng/mL of IL-1β). The expression of Th17 (anti IL-17 PE) and Treg (Anti Foxp3-FITC) in these cells was confirmed using flow cytometry. Also, an amount of IL-17 in these supernatants was measured using ELISA.

[10] = system: osteoclast precursor differentiated from human PBMCs; test: Osteoclast differentiation-related factor expression in osteoclast precursor from PBMCs, real-time PCR; format: cell-based; conditions: M-CSF 25 ng/mL, RANKL 30 ng/mL, 10, 20, 40 μM
Procedure: PBMCs of a healthy human were isolated, stimulated with M-CSF (25 ng/mL) for 3 days to induce differentiation into an osteoclast precursor. After 3 days, a medium was replaced with a fresh one, and the cells were stimulated with varying concentrations of M-CSF (25 ng/mL), RANKL (30 ng/mL), and JC1-40 (10, 20, 40 μM), and cultured for 3 days. After the medium was replaced every 3 days, the same stimulus was applied to the cells while a differentiation state of the cells was observed.
RNA was isolated from the differentiated cells, and synthesized into cDNA. Thereafter, a change in mRNA expression levels of the osteoclast differentiation-related factors, Cathepsin K and TRAP, was analyzed using real-time PCR.

[11] = system: type II collagen-induced arthritis (CIA); test: Type II collagen-induced arthritis (CIA) animal model; format: in vivo, mouse; conditions: DBA male mice
Procedure: 6-week-old DBA male mice were inoculated with bovine CII (Chondrex Inc.) emulsified in CFA (Chondrex Inc.), and re-inoculated after 15 days to induce rheumatoid arthritis. After the first administration, JC1-40 dissolved in 0.5% carboxymethyl cellulose (CMC) was continuously orally administered three times a week to the mice at a dose of 10 mg/kg. A 0.5% CMC vehicle and 5 mg/kg of Enbrel as the positive control were administered to the other groups in the same manner. The ratio of the population of the mice developing an arthritic disease was calculated as incidence, and the arthritic tissues were pathophysiologically examined to calculate a degree of progression of the disease as a score and compare conditions of the rheumatoid arthritis disease between the groups. The clinical scores were evaluated using a clinical scoring system which scores the swelling and redness in feet or tail regions by observing arthritis lesions of mice with the naked eye every day to check a degree of progression of inflammatory diseases in the joints.

[12] = 10 mg/kg orally three times a week

## CNC(=S)NCc1ccc(Oc2ccccc2)cc1 [JC1-42, 1-(4-phenoxy-benzyl)-3-methyl-thiourea]
Peritoneal macrophages [1]
  mRNA level of IL-1β: reduced
  mRNA level of IL-6: reduced
  mRNA level of NOS2: reduced
  mRNA level of TNF-α: reduced
Peritoneal macrophages [2]
  transcription level of Arg1: increased
  transcription level of CD206: increased
  transcription level of IL-10: increased
  transcription level of Retnla: increased

## CNC(=S)NCc1ccc(OCc2ccccc2)cc1 [JC1-40, 1-(4-benzyloxy-benzyl)-3-methyl-thiourea]
[3]
  transcription level of IL-1β: reduced
  transcription level of IL-6: reduced
  transcription level of NOS2: reduced
  transcription level of TNF-α: reduced
Peritoneal macrophages [1]
  mRNA level of IL-1β: reduced
  mRNA level of IL-6: reduced
  mRNA level of NOS2: reduced
  mRNA level of TNF-α: reduced
Peritoneal macrophages [4]
  M1 differentiation (CD80 marker): suppressed
Peritoneal macrophages [2]
  transcription level of Arg1: increased
  transcription level of CD206: increased
  transcription level of IL-10: increased
  transcription level of Retnla: increased
EL4 cell line [5]
  transcription level of IL-17: decreased
  transcription level of the nuclear receptor RORα: increased
EL4 cell line [6]
  expression level of Foxp3: increased
[7]
  amount of IL-17 positive cells differentiated into Th17: decreased
[8]
  amount of secreted IL-17 protein in the culture broth: reduced
[9]
  amount of (FOXP3 positive) cells differentiated into Treg: increased
  amount of (IL-17 positive) T cells differentiated into Th17: decreased
[10]
  expression of osteoclast differentiation-related factors (Cathepsin K and TRAP mRNA): significantly reduced
[11]; [12]
  arthritis incidence: suppressed
  arthritis scores: suppressed
[11]; 10 mg/kg orally vs 5 mg/kg Enbrel
  effect compared to Enbrel (positive control): superior effect
